In patent publication US20200338045A1, “ISOINDOLINE COMPOSITIONS AND METHODS FOR TREATING NEURODEGENERATIVE DISEASE” (priority 2017, published 2020):

Key:
[1] = test system: plasma proteins; assay: LC/MSMS protein expression in plasma (COG0102); assay type: in vivo, human
Procedure: Plasma and CSF protein expression were measured by LC/MSMS in samples drawn prior to dosing (Day 0) and at end of dosing (Day 28) and were compared within each patient and between dosing groups.
This trial (ClinicalTrials.gov NCT02907567) was a randomized, double-blind, placebo-controlled clinical trial in mild to moderate Alzheimer's patients (MMSE 18-26) (See FIG. 1 for clinical trial design). The trial was conducted at six sites in Australia. Patients were randomized into placebo (n=5) or CT1812-treated groups: 90 mg (n=4), 280 mg (n=5) or 560 mg (n=5) and treated once daily for 28 days. Clinical chemistry was done at Sydpath (Sydney, AU). Pharmacokinetics were done at CPR Pharma Services (Adelaide, AU). Cerebrospinal fluid samples were taken at screening and day 21-28 of treatment and aliquoted. Plasma samples were taken at screening or Day 1 (one sample) and day 14-28, then spun down to separate plasma and aliquoted. One set of CSF samples was analyzed for Alzheimer's disease biomarkers; protein measurements (Aβ42, A1340, total tau, tau phosphorylated at threonine 181 (phosphorylated tau), NFL and neurogranin) were performed using commercially available ELISA assays from Fujirebio according to the manufacturer's instructions (INNOTEST β-AMYLOID(1-42), INNOTEST β-AMYLOID(1-40), INNOTEST hTau Ag, INNOTEST PHOSPHO-TAU(181P), Uman Diagnostics NFL assay). Neurogranin was measured with a sandwich ELISA method using antibodies Ng2 and Ng22 developed at the University of Gotteborg (Kvartsberg et al. 2015). Identical aliquots of CSF, and plasma were analyzed for protein expression changes via LC/MSMS at Caprion (see below).
Matched screening and day 28 plasma and CSF samples were analyzed by LC/MSMS at Caprion Biosciences Inc. Plasma was depleted of high and medium abundance proteins using a commercial immunoaffinity column, IgY14-Supermix (Sigma). CSF was depleted of only 14 high abundance proteins using MARS-14 (Agilent). All samples were digested with trypsin and plasma samples were fractionated by strong cation exchange chromatography (3 fractions). Both CSF and plasma samples were analyzed using a NanoAcquity UPLC coupled to a Q Exactive MS. […] The 12 most intense peaks per survey scan with charge states 2-8 fragmented and scanned with a mass range from 200 to 2000 m/z at a resolution of 17,500. Raw spectrometer data files for each LC-MS run were aligned independently using Elucidator software (Rosetta Biosoftware). The MS/MS spectra were matched to corresponding peptide sequences found in the Uniprot Human protein database (January 2017) using Mascot software, allowing for up to 2 missed cleavages, a peptide tolerance of 20 ppm, and an MS/MS tolerance of 0.05 Da. Outlier detection was performed by determining the average log-intensity of all isotope groups (IG) over injection order for all samples. Samples with an average value greater than 2 standard deviations from the mean were flagged for investigation. Following data transformation and normalization, expression analysis of the identified isotope groups was performed and the statistical significance of each comparison was assessed with a parametric, linear mixed model (LMM) and a non-parametric Wilcoxon ranked test (ranked p-values). Expression analysis was also performed at the peptide and protein levels, which used the same methodology as above, but applied to peptide/protein intensities, derived by rolling-up the corresponding isotope group intensities. Isotope groups not detected in at least half of the samples in either of the two groups being compared were not used for the roll-up.

[2] = test system: CYP isoenzymes; assay: Drug interaction studies
[3] = plasma, treated group vs baseline

With CC(C)(C)Oc1cc(CCC(C)(C)N2Cc3ccc(S(C)(=O)=O)cc3C2)ccc1O [CT1812] the “Sema3F, % change treated vs placebo” value ([1]; CSF & Plasma) was 47%, the “Sema3F, With CT1812” value ([1]; CSF & Plasma, direction of change) was “significantly increased and ↑*” and the “Sema3F, % change baseline treated” value ([1]; CSF & Plasma, treated group vs baseline) was 10%. The “ACOX1, % change treated vs placebo” value ([1]; plasma) was 42%, the “ANXA1, % change treated vs placebo” value ([1]; plasma) was −61% and the “ANXA2, % change treated vs placebo” value ([1]; plasma) was −54%. For the same compound, the “AZGP1, % change treated vs placebo” value ([1]; plasma) was 28%, the “B4GALT1, % change treated vs placebo” value ([1]; plasma) was 36% and the “C4BPA, % change treated vs placebo” value ([1]; plasma) was 44%. The “CFH, % change treated vs placebo” value ([1]; plasma) was 20%, the “Cathepsin S, % change treated vs placebo” value ([1]; plasma) was 58% and the “Clusterin, % change treated vs placebo” value ([1]; plasma) was 17%. For the same compound, the “FUT11, % change treated vs placebo” value ([1]; plasma) was 39%, the “GALT6, % change treated vs placebo” value ([1]; plasma) was 33% and the “GPR116, % change treated vs placebo” value ([1]; plasma) was 27%. The “GXYLT1, % change treated vs placebo” value ([1]; plasma) was 82%, the “HINT1, % change treated vs placebo” value ([1]; plasma) was −131% and the “HMGB1, % change treated vs placebo” value ([1]; plasma) was −315%. The “HRG, % change treated vs placebo” value ([1]; plasma) was 61%, the “Hex A, % change treated vs placebo” value ([1]; plasma) was 34% and the “Hex B, % change treated vs placebo” value ([1]; plasma) was 36%. For the same compound, the “LCAT, % change treated vs placebo” value ([1]; plasma) was 17%, the “NRP2, % change treated vs placebo” value ([1]; plasma) was 46% and the “Neprilysin, % change treated vs placebo” value ([1]; plasma) was 4717%. For the same compound, the “PCK2, % change treated vs placebo” value ([1]; plasma) was 74%, the “POMGNT1, % change treated vs placebo” value ([1]; plasma) was 41% and the “PRDX6, % change treated vs placebo” value ([1]; plasma) was −130%. For the same compound, the “SERPING1, % change treated vs placebo” value ([1]; plasma) was 24%, the “ST3GAL1, % change treated vs placebo” value ([1]; plasma) was 31% and the “SUMO3, % change treated vs placebo” value ([1]; plasma) was −77%. The “TRIM35, % change treated vs placebo” value ([1]; plasma) was 99%, the “TXN, % change treated vs placebo” value ([1]; plasma) was −98% and the “WDR81, % change treated vs placebo” value ([1]; plasma) was 142%. The “ACOX1, With CT1812” value ([1]; plasma, direction of change) was “↑*”, the “ANXA1, With CT1812” value ([1]; plasma, direction of change) was “significantly reduced and ↓*” and the “ANXA2, With CT1812” value ([1]; plasma, direction of change) was “↓*”. The “AZGP1, With CT1812” value ([1]; plasma, direction of change) was “↑*”, the “B4GALT1, With CT1812” value ([1]; plasma, direction of change) was “↑*” and the “C4BPA, With CT1812” value ([1]; plasma, direction of change) was “significantly increased and ↑*”. The “CFH, With CT1812” value ([1]; plasma, direction of change) was “↑*”, the “Cathepsin S, With CT1812” value ([1]; plasma, direction of change) was “significantly increase and ↑*” and the “Clusterin, With CT1812” value ([1]; plasma, direction of change) was “increased and ↑”. For the same compound, the “FUT11, With CT1812” value ([1]; plasma, direction of change) was “↑*”, the “GALT6, With CT1812” value ([1]; plasma, direction of change) was “↑*” and the “GPR116, With CT1812” value ([1]; plasma, direction of change) was “↑”. The “GXYLT1, With CT1812” value ([1]; plasma, direction of change) was “significantly increased and ↑*”, the “HINT1, With CT1812” value ([1]; plasma, direction of change) was “significantly reduced and ↓*” and the “HMGB1, With CT1812” value ([1]; plasma, direction of change) was “significantly reduced and ↓*”. For the same compound, the “HRG, With CT1812” value ([1]; plasma, direction of change) was “significantly increased and ↑*”, the “Hex A, With CT1812” value ([1]; plasma, direction of change) was “significantly increased and ↑*” and the “Hex B, With CT1812” value ([1]; plasma, direction of change) was “significantly increased and ↑*”. For the same compound, the “LCAT, With CT1812” value ([1]; plasma, direction of change) was “↑”, the “NRP2, With CT1812” value ([1]; plasma, direction of change) was “↑*” and the “Neprilysin, With CT1812” value ([1]; plasma, direction of change) was “↑*”. For the same compound, the “PCK2, With CT1812” value ([1]; plasma, direction of change) was “↑”, the “POMGNT1, With CT1812” value ([1]; plasma, direction of change) was “↑*” and the “PRDX6, With CT1812” value ([1]; plasma, direction of change) was “↓*”. For the same compound, the “SERPING1, With CT1812” value ([1]; plasma, direction of change) was “significantly increased and ↑*”, the “ST3GAL1, With CT1812” value ([1]; plasma, direction of change) was “↑*” and the “SUMO3, With CT1812” value ([1]; plasma, direction of change) was “↓*”. The “TRIM35, With CT1812” value ([1]; plasma, direction of change) was “↑*”, the “TXN, With CT1812” value ([1]; plasma, direction of change) was “significantly reduced and ↓*” and the “WDR81, With CT1812” value ([1]; plasma, direction of change) was “significantly increased and ↑*”. The “GALT6, With CT1812” value ([1]; plasma, direction of change, listed as CT-1812) was “significantly increased”, the “ACOX1, % change baseline treated” value [1, 3] was 10% and the “ANXA1, % change baseline treated” value [1, 3] was −18%. For the same compound, the “ANXA2, % change baseline treated” value [1, 3] was −20%, the “AZGP1, % change baseline treated” value [1, 3] was 5% and the “B4GALT1, % change baseline treated” value [1, 3] was 16%. For the same compound, the “C4BPA, % change baseline treated” value [1, 3] was 21%, the “CFH, % change baseline treated” value [1, 3] was 6% and the “Cathepsin S, % change baseline treated” value [1, 3] was 27%. For the same compound, the “Clusterin, % change baseline treated” value [1, 3] was 4%, the “FUT11, % change baseline treated” value [1, 3] was 18% and the “GALT6, % change baseline treated” value [1, 3] was 15%. For the same compound, the “GPR116, % change baseline treated” value [1, 3] was 9%, the “GXYLT1, % change baseline treated” value [1, 3] was 38% and the “HINT1, % change baseline treated” value [1, 3] was −43%. The “HMGB1, % change baseline treated” value [1, 3] was −67%, the “HRG, % change baseline treated” value [1, 3] was 10% and the “Hex A, % change baseline treated” value [1, 3] was 13%. For the same compound, the “Hex B, % change baseline treated” value [1, 3] was 19%, the “LCAT, % change baseline treated” value [1, 3] was 6% and the “NRP2, % change baseline treated” value [1, 3] was 10%. The “Neprilysin, % change baseline treated” value [1, 3] was 48%, the “PCK2, % change baseline treated” value [1, 3] was 76% and the “POMGNT1, % change baseline treated” value [1, 3] was 14%. The “PRDX6, % change baseline treated” value [1, 3] was −37%, the “SERPING1, % change baseline treated” value [1, 3] was 4% and the “ST3GAL1, % change baseline treated” value [1, 3] was 5%. The “SUMO3, % change baseline treated” value [1, 3] was −35%, the “TRIM35, % change baseline treated” value [1, 3] was 3% and the “TXN, % change baseline treated” value [1, 3] was −33%. For the same compound, the “WDR81, % change baseline treated” value [1, 3] was 33%, the “GALNT1, GALNT2, GALNT4, and GALNT5 expression” value ([1]; with treatment) was “increase with treatment” and the “interactions with CYP isoenzymes” value [2] was “minor interactions”.
